Experimental data taken from the NIST ThermoML archive (doi:10.1016/j.jct.2019.01.015).
Numbers after ± are expanded uncertainties.

What was measured:
[1] = Crystal; DSC
[2] = Molar enthalpy of transition or fusion; conditions: Crystal; DSC

For `C=NCC#N` [methyleneaminoacetonitrile], the Triple point temperature [1] was 402.15 ± 1 K and the “Molar enthalpy of transition or fusion” value [2] was 2.55 ± 0.0884 kcal/mol.
